Source: ChEMBL document CHEMBL1126116, “Synthesis and antibronchospastic activity of 8-alkoxy- and 8-(alkylamino)imidazo[1,2-a]pyrazines” (J Med Chem, 1992)

Key:
[1] = Compound was tested for it's acute toxicity in mice when given orally.; type: organism-based; settings: mouse, in vivo, po
Mus musculus [2] = experiment: Locomotor activity (no. light beam crossings in 50 min) in mice by intravenous dose at 166 umol/kg; type: functional
Mus musculus [3] = experiment: Locomotor activity (no. light beam crossings in 50 min) in mice by intravenous dose at 55 umol/kg; type: functional
Heart phosphodiesterase = Heart phosphodiesterase (Bos taurus, UniProt Q01061+P14100+E1BN64); experiment: Inhibition of bovine heart phosphodiesterase; type: protein assay
Rattus norvegicus [4] = organism: Rattus norvegicus; experiment: (§1) Inhibition of carbachol induced tracheal contraction; type: functional; settings: Trachea, read-out: ED50 (the source's name)
Rattus norvegicus [5] = organism: Rattus norvegicus; experiment: Inhibition of spontaneous contraction of isolated rat uterus; type: functional; settings: read-out: ED50 (the source's name)
[6] = Compound was tested for its acute toxicity in mice when given orally.; type: organism-based; settings: mouse, in vivo, po
Cavia porcellus = organism: Cavia porcellus; experiment: as §1; type: functional; settings: Trachea, read-out: ED50 (the source's name)

Structure (SMILES) | LD50 [1] [µmol/kg] | Activity (Mus musculus [2]) [%] | Activity (Mus musculus [3]) [%] | IC50 (Heart phosphodiesterase) [µM] | EC50 (Rattus norvegicus [4]) [µM] | EC50 (Rattus norvegicus [5]) [µM] | LD50 [6] [µmol/kg] | EC50 (Cavia porcellus) [µM]
CCNc1nc(Br)cn2ccnc12 | 2900 | -73 | -13 | 81 | 65 | 130 |  | 
Cn1c(=O)c2nc[nH]c2n(C)c1=O.O [THEOPHYLLINE] | 1900 | 170 | 130 | 92 | 920 | 900 |  | 
Nc1nc(Br)cn2ccnc12 | 1300 | -83 | -53 | 267 | 93 | 300 |  | 
CNc1nccn2c(Br)cnc12 |  | -57 | -25 | 337 |  | 100 | 4200 | 97
CNc1nc(Br)cn2cc(C#N)nc12 | 500 |  | -64 | 70 | 2 | 2 |  | 
CNc1nc(Br)cn2ccnc12 | 2200 | -83 | -75 | 27 | 24 | 160 |  | 
